Test results as given in patent publication US7417156B2, “Orally active, antimalarial, anticancer, artemisinin-derived trioxane dimers” (Johns Hopkins University, priority 2002, dated 2008).
Where two headings read alike, the source gives them in different places.

Legend:
MDA-MB231/ATCC = assay: NCI 60 cell line panel screen (SRB); type: cell-based, human
BT-549 = assay: NCI 60 cell line panel screen (SRB); type: cell-based, human
MOLT-4 = tested on: MOLT-4
Protocol: Growth Inhibition. […] The screening assay is performed on 96-well microtitre plates. Relatively high initial inoculation densities are used, in order to permit measurement of “time-zero” values and to enhance the screen's ability to detect and provide some differentiation between growth inhibition and cytotoxic response parameters. […] The inoculated microtitre plates are pre-incubated for 24 hours at 37° C. prior to drug additions. The five drug dilutions tested routinely range from 10^−4 to 10^−8 molar. Higher or lower concentration ranges may be selected on a non-routine basis if appropriate solubility and/or prior biological information or other screening data so dictate. Duplicate wells are prepared for all concentrations, (concentration is often denoted by placing brackets around a number); “time-zero” and “no drug” controls are also provided for each test. The minimum amount of compound required for a one-time evaluation in the routine screen can be calculated from the knowledge that each test requires a total of approximately 40 ml (0.04 liter) of cell culture medium containing the highest desired drug concentration. […] After a 48 hour incubation (37° C.) with the test compound, the cells are fixed in situ to the bottoms of the microtitre wells by addition of 50 μl of either 50% trichloroacetic acid (for adherent cell lines) or 80% trichloroacetic acid (for settled cell suspension lines), followed by incubation for 60 minutes at 4° C. The cellular protein in each well is assayed using a sulforhodamine B (SRB) stain procedure. Briefly, after discarding the supernatants, the microtitre plates are washed 5 times with deionized water and air-dried. […] Unbound SRB is removed by washing 5 times with 1% acetic acid. […] SRB is a bright pink anionic dye which, in dilute acetic acid, binds electrostatically to the basic amino acids of TCA-fixed cells. Cryopreserved master stocks of all the lines are maintained, and cultures used for screening are replaced from the master stock after no more than twenty passages in the screening laboratory. The cell line panel consists of 60 lines, organized into nine, disease-related subpanels including leukemia, non-small-cell lung cancer, colon, CNS, melanoma, ovarian, renal, prostate and breast cancers.
At this value the increase from time tzero, in the number or mass of cells in the test well is only 50% as much as the corresponding increase in the control well during this period of the experiment, see Table III. A drug effect of this intensity is interpreted as primary growth inhibition.
At this value the number or mass of cells in the well at the end of the experiment equals the number or mass of cells in the well at time tzero, see Table IV. A drug effect of this intensity is regarded as cytostasis.
At this value, the number or mass of cells in the test well at the end of the experiment is half that at time tzero, see Table V. This is interpreted as cytotoxicity.
Dose response curves, shown in the above mentioned Figures, are obtained by exposing various cancer cell lines to compounds having a known concentration ([log10M]), as discussed in detail above, and then plotting the percentage growth of each cell line for each concentration. […] Percentage growth is determined by dividing the number or mass of cells in the test well by the number or mass of cells in a control well. […] As discussed previously, the five drug dilutions routinely tested range from 10^−4 to […].

HOP-62 = assay: NCI 60 cell line panel screen (SRB); type: cell-based, human
UACC-257 = assay: NCI 60 cell line panel screen (SRB); type: cell-based, human
RXF 393 = assay: NCI 60 cell line panel screen (SRB); type: cell-based, human
MCF7 = assay: NCI 60 cell line panel screen (SRB); type: cell-based, human
K-562 = assay: NCI 60 cell line panel screen (SRB); type: cell-based, human
SF-268 = assay: NCI 60 cell line panel screen (SRB); type: cell-based, human
NCI/ADR-RES = assay: NCI 60 cell line panel screen (SRB); type: cell-based, human
CCRF-CEM = assay: NCI 60 cell line panel screen (SRB); type: cell-based, human
HL-60(TB) = assay: NCI 60 cell line panel screen (SRB); type: cell-based, human
SF-539 = assay: NCI 60 cell line panel screen (SRB); type: cell-based, human
[1] = tested on: chloroquine-sensitive P. falciparum (NF54); assay: Antimalarial activity in vitro, [3H]hypoxanthine incorporation; type: cell-based
OVCAR-8 = assay: NCI 60 cell line panel screen (SRB); type: cell-based, human
HT29 = assay: NCI 60 cell line panel screen (SRB); type: cell-based, human
SK-OV-3 = assay: NCI 60 cell line panel screen (SRB); type: cell-based, human

CC1CCC2C(C)C(CC(O)(CO)CC3OC4OC5(C)CCC6C(C)CCC(C3C)C46OO5)OC3OC4(C)CCC1C32OO4 (centres unmarked) [Compound 5, bis-trioxane vicinal diol]
Log10GI50 (MDA-MB231/ATCC; Breast Cancer, MDA-MB231/ATCC): −4.99
Log10LC50 (MDA-MB231/ATCC; MDA-MB231/ATCC (Breast Cancer), LC50: PG=−50): −4.15 log10M
Log10TGI50 (MDA-MB231/ATCC; MDA-MB231/ATCC (Breast Cancer), TGI: PG=0): −4.57 log10M
Log10LC50 (BT-549; BT-549 (Breast Cancer), LC50: PG=−50): −4.30 log10M
Log10TGI50 (BT-549; BT-549 (Breast Cancer), TGI: PG=0): −4.81 log10M
Log10GI50 (BT-549; Breast Cancer, BT-549): <−8.00
concentration for cytotoxicity (percentage growth −50) (MOLT-4): greater than 10^−4 M
Log10GI50 (MOLT-4; Leukemia, MOLT-4): <−8.00
Log10LC50 (MOLT-4; MOLT-4 (Leukemia), LC50: PG=−50): >−4.00 log10M
Log10TGI50 (MOLT-4; MOLT-4 (Leukemia), TGI: PG=0): >−4.00 log10M
Log10LC50 (HOP-62; HOP-62 (Non-Small Cell Lung Cancer), LC50: PG=−50): >−4.00 log10M
Log10TGI50 (HOP-62; HOP-62 (Non-Small Cell Lung Cancer), TGI: PG=0): −4.26 log10M
Log10GI50 (HOP-62; Non-Small Cell Lung Cancer, HOP-62): −4.66
Log10GI50 (UACC-257; Melanoma, UACC-257): <−8.00
Log10LC50 (UACC-257; UACC-257 (Melanoma), LC50: PG=−50): −4.36 log10M
Log10TGI50 (UACC-257; UACC-257 (Melanoma), TGI: PG=0): −4.90 log10M
Log10LC50 (RXF 393; RXF 393 (Renal Cancer), LC50: PG=−50): −4.18 log10M
Log10TGI50 (RXF 393; RXF 393 (Renal Cancer), TGI: PG=0): −4.53 log10M
Log10GI50 (RXF 393; Renal Cancer, RXF 393): −4.89
Log10GI50 (MCF7; Breast Cancer, MCF7): <−8.00
Log10LC50 (MCF7; MCF7 (Breast Cancer), LC50: PG=−50): −4.22 log10M
Log10TGI50 (MCF7; MCF7 (Breast Cancer), TGI: PG=0): −4.88 log10M
Log10LC50 (K-562; K-562 (Leukemia), LC50: PG=−50): >−4.00 log10M
Log10TGI50 (K-562; K-562 (Leukemia), TGI: PG=0): >−4.00 log10M
Log10GI50 (K-562; Leukemia, K-562): <−8.00
Log10GI50 (SF-268; CNS Cancer, SF-268): −4.94
Log10LC50 (SF-268; SF-268 (CNS Cancer), LC50: PG=−50): −4.12 log10M
Log10TGI50 (SF-268; SF-268 (CNS Cancer), TGI: PG=0): −4.53 log10M
Log10GI50 (NCI/ADR-RES; Breast Cancer, NCI/ADR-RES): −4.75
Log10LC50 (NCI/ADR-RES; NCI/ADR-RES (Breast Cancer), LC50: PG=−50): >−4.00 log10M
Log10LC50 (CCRF-CEM; CCRF-CEM (Leukemia), LC50: PG=−50): >−4.00 log10M
Log10TGI50 (CCRF-CEM; CCRF-CEM (Leukemia), TGI: PG=0): >−4.00 log10M
Log10GI50 (CCRF-CEM; Leukemia, CCRF-CEM): −4.71
Log10LC50 (HL-60(TB); HL-60(TB) (Leukemia), LC50: PG=−50): >−4.00 log10M
Log10GI50 (HL-60(TB); Leukemia, HL-60(TB)): <−8.00
Log10GI50 (SF-539; CNS Cancer, SF-539): −4.86
Log10LC50 (SF-539; SF-539 (CNS Cancer), LC50: PG=−50): >−4.00 log10M
Log10TGI50 (SF-539; SF-539 (CNS Cancer), TGI: PG=0): −4.41 log10M
IC50 [1]: below one nM
antimalarial potency in vitro relative to artemisinin [1]: 10 times
IC50 ([1]; Table I, NF54 strain, read-out: IC50): 0.59 nM
Log10LC50 (OVCAR-8; OVCAR-8 (Ovarian Cancer), LC50: PG=−50): >−4.00 log10M
Log10TGI50 (OVCAR-8; OVCAR-8 (Ovarian Cancer), TGI: PG=0): −4.47 log10M
Log10GI50 (OVCAR-8; Ovarian Cancer, OVCAR-8): <−8.00
Log10GI50 (HT29; Colon Cancer, HT29): <−8.00
Log10LC50 (HT29; HT29 (Colon Cancer), LC50: PG=−50): >−4.00 log10M
Log10TGI50 (HT29; HT29 (Colon Cancer), TGI: PG=0): >−4.00 log10M
Log10GI50 (SK-OV-3; Ovarian Cancer, SK-OV-3): −4.62
Log10LC50 (SK-OV-3; SK-OV-3 (Ovarian Cancer), LC50: PG=−50): >−4.00 log10M
Log10TGI50 (SK-OV-3; SK-OV-3 (Ovarian Cancer), TGI: PG=0): −4.15 log10M
